Results on 22 molecules are retold here after ChEMBL document CHEMBL1795322, “Inhibition of the cellular function of perforin by 1-amino-2,4-dicyanopyrido[1,2-a]benzimidazoles” (Bioorg Med Chem, 2011).

For series [1], the target named is T1, Perforin-1 (Homo sapiens) (UniProt P14222).
T1 sequence (whole entry): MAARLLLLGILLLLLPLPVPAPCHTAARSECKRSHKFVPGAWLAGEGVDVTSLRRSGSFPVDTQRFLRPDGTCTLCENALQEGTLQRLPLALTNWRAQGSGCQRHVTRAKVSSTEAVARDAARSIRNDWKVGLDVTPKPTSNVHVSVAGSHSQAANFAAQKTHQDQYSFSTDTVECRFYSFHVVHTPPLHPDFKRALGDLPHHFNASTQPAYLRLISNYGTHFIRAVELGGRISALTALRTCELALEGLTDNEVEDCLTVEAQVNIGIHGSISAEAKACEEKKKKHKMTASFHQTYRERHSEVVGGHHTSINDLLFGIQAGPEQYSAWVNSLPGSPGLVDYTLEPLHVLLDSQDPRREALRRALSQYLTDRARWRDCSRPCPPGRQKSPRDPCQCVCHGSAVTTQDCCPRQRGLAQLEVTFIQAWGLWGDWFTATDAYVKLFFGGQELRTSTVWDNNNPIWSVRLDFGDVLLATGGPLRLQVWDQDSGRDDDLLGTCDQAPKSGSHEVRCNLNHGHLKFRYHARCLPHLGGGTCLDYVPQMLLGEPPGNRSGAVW
Nature of the series: Inhibition of perforin released from human KHYG-1 NK cells assessed as inhibition of perforin mediated lysis of human K562 cells at 20 uM in presence of 10% mouse serum by [51Cr] release assay. Type of series: cell-based.

A short description of series [2]: Toxicity against human KHYG-1 NK cells assessed as cell viability at 20 uM incubated for 24 hrs at 37 degC y Trypan blue exclusion method. The format is cell-based. To be noted: read-out: Activity.
Series [3] concerns the target T1, Perforin-1 (Homo sapiens). Put plainly: Inhibition of perforin released from human KHYG-1 NK cells assessed as inhibition of perforin mediated lysis of human K562 cells at 20 uM in presence of 0.1% BSA by [51Cr] release assay. Type of series: cell-based.
Series [4] is described as follows: Inhibition of recombinant perforin mediated lysis of human Jurkat cells pre-incubated for 30 mins with perforin followed by incubation with Jurkat cells at 37 degC for 4 hrs in presence of 0.1% BSA by [51Cr] release assay.

The structures appear in SMILES notation.

With `N#Cc1c(-c2ccc(C(N)=O)cc2)c(C#N)c2nc3ccccc3n2c1N`, the inhibition turned out to be 6% in series [1] and 7% in series [3]. The viability at 24 h, 20 µM in series [2] is 79%.

Regarding `N#Cc1c(-c2ccc(C(=O)NCC(O)CO)cc2)c(C#N)c2nc3ccccc3n2c1N` (configuration not stated), the inhibition in series [1] and in series [3] was 0% each time. The viability at 24 h, 20 µM in series [2] came to 84%.

For `CNC(=O)COc1ccc(-c2c(C#N)c(N)n3c(nc4ccccc43)c2C#N)cc1`, the inhibition in series [1] is 42%; in series [3], 41%. The viability at 24 h, 20 µM in series [2] was 84%.

Take `N#Cc1c(-c2ccc(OCC(N)=O)cc2)c(C#N)c2nc3ccccc3n2c1N`: the values for the inhibition in series [1] and in series [3] were 2% and 18%, respectively. In addition, in series [2], the viability at 24 h, 20 µM amounted to 86%.

As for `CNC(=O)c1ccc(-c2c(C#N)c(N)n3c(nc4ccccc43)c2C#N)cc1`, the inhibition in series [1] amounted to 12%; in series [3], 9%. For the same molecule, the viability at 24 h, 20 µM in series [2] was found to be 84%.

As for `Cc1cc2c(c(=S)[nH]1)C(=O)O/C2=C\c1csc2ccccc12`, the inhibition amounted to 6% in series [1] and 60% in series [3]. In addition, the viability at 24 h, 20 µM in series [2] worked out at 88%. In addition, the IC50 in series [4] is 970 nM.

In the case of `CCNC(=O)c1ccc(-c2c(C#N)c(N)n3c(nc4ccccc43)c2C#N)cc1`, the results for the inhibition in series [1] and in series [3] were 12% and 19%, respectively. For the same molecule, the viability at 24 h, 20 µM in series [2] came out at 53%.

Turning to `N#Cc1c(-c2ccc(C(=O)NCCO)cc2)c(C#N)c2nc3ccccc3n2c1N`, the inhibition stood at 12% in series [1] and 4% in series [3]. In series [2], the viability at 24 h, 20 µM came to 89%.

With `N#Cc1c(-c2ccc(OCC(=O)NCCO)cc2)c(C#N)c2nc3ccccc3n2c1N`, the inhibition in series [1] stood at 6%; in series [3], 0%. Moreover, the viability at 24 h, 20 µM in series [2] worked out at 92%.

As for `CC(O)CNC(=O)c1ccc(-c2c(C#N)c(N)n3c(nc4ccccc43)c2C#N)cc1` (configuration not stated), the inhibition in series [1] and in series [3] was 0% throughout. For the same molecule, in series [2], the viability at 24 h, 20 µM was 68%.

Take `CCNC(=O)COc1ccc(-c2c(C#N)c(N)n3c(nc4ccccc43)c2C#N)cc1`: the inhibition in series [1] came to 11%; in series [3] it was 0%. Further, the viability at 24 h, 20 µM in series [2] was found to be 77%.

Take `CN(C)C(=O)COc1ccc(-c2c(C#N)c(N)n3c(nc4ccccc43)c2C#N)cc1`: the inhibition came to 25% in series [1] and 34% in series [3]. The viability at 24 h, 20 µM in series [2] stood at 78%.

On to `CC(C)NC(=O)COc1ccc(-c2c(C#N)c(N)n3c(nc4ccccc43)c2C#N)cc1`, for which the inhibition is 22% in series [1] and 52% in series [3]. For the same molecule, the viability at 24 h, 20 µM in series [2] was 70%.

For the molecule `N#Cc1c(-c2ccc(OCCO)cc2)c(C#N)c2nc3ccccc3n2c1N`, the inhibition in series [1] worked out at 16%; in series [3] it was 15%. For the same molecule, the viability at 24 h, 20 µM in series [2] was found to be 85%.

In the case of `N#Cc1c(-c2ccc(C(=O)NCCc3ccncc3)cc2)c(C#N)c2nc3ccccc3n2c1N`, the inhibition in series [1] came to 20%; in series [3] it was 15%. Moreover, in series [2], the viability at 24 h, 20 µM was found to be 62%.

On to `Cc1cccc2c1nc1c(C#N)c(-c3ccc(OCC(N)=O)cc3)c(C#N)c(N)n12`, for which the inhibition was determined as 8% in series [1] and 10% in series [3]. Further, the viability at 24 h, 20 µM in series [2] turned out to be 88%.

For the molecule `N#Cc1c(-c2ccc(C(=O)NCCCO)cc2)c(C#N)c2nc3ccccc3n2c1N`, the inhibition in series [1] amounted to 7%; in series [3], 0%. Further, the viability at 24 h, 20 µM in series [2] turned out to be 86%.

In the case of `CCCNC(=O)COc1ccc(-c2c(C#N)c(N)n3c(nc4ccccc43)c2C#N)cc1`, the inhibition in series [1] is 22%; in series [3], 41%. Besides, the viability at 24 h, 20 µM in series [2] stood at 90%.

As for `N#Cc1c(-c2ccc(C(=O)NCCN3CCOCC3)cc2)c(C#N)c2nc3ccccc3n2c1N`, the inhibition in series [1] was found to be 5%; in series [3], 1%. The viability at 24 h, 20 µM in series [2] was determined as 85%.

`Cc1ccc2c(nc3c(C#N)c(-c4ccc(OCC(N)=O)cc4)c(C#N)c(N)n32)c1C`: the inhibition in series [1] is 7%; in series [3] it was 36%. Besides, the viability at 24 h, 20 µM in series [2] was 60%.

For `CN(C)C(=O)CCc1ccc(-c2c(C#N)c(N)n3c(nc4ccccc43)c2C#N)cc1`, the values for the inhibition in series [1] and in series [3] were 64% and 49%, respectively. For the same molecule, in series [2], the viability at 24 h, 20 µM amounted to 96%.

With `Cc1cc2nc3c(C#N)c(-c4ccc(OCC(N)=O)cc4)c(C#N)c(N)n3c2cc1C`, the inhibition in series [1] worked out at 5%; in series [3], 38%. The viability at 24 h, 20 µM in series [2] was determined as 62%.

For orientation: inhibition means the share of the control response that was lost under treatment. In general, IC50 refers to the concentration needed to halve the response being measured.
